Assay results from ChEMBL document CHEMBL2157992, “SAR studies of epoxycurcuphenol derivatives on leukemia CT-CD4 cells” (2012).

Columns and labels:
Type in all cases: functional
Jurkat [1] = assay: Antiproliferative activity against human Jurkat cells assessed as proliferation index at 10 uM after 24 hrs using CFSE staining by flow cytometry relative to original parent cells (reference value: 2.48)
Jurkat [2] = assay: Antiproliferative activity against human Jurkat cells assessed as parent population at 10 uM after 24 hrs using CFSE staining by flow cytometry (reference value: 23.70 %)
Jurkat [3] = assay: Antiproliferative activity against human Jurkat cells assessed as proliferation index of >/= 3rd generation cells at 10 uM after 24 hrs using CFSE staining by flow cytometry relative to original parent cells
Jurkat [4] = assay: Antiproliferative activity against human Jurkat cells assessed as 4th generation cell population at 10 uM after 24 hrs using CFSE staining by flow cytometry (reference value: 25. 99 %)
Jurkat [5] = assay: Antiproliferative activity against human Jurkat cells assessed as 5th generation cell population at 10 uM after 24 hrs using CFSE staining by flow cytometry (reference value: 18.43 %)
Jurkat [6] = assay: Antiproliferative activity against human Jurkat cells assessed as 3rd generation cell population at 10 uM after 24 hrs using CFSE staining by flow cytometry relative to control
Jurkat [7] = assay: Antiproliferative activity against human Jurkat cells assessed as non proliferative fraction at 10 uM after 24 hrs using CFSE staining by flow cytometry (reference value: 0.59)
Jurkat [8] = assay: Inhibition of cell division in human Jurkat cells at 1 uM
Jurkat [9] = assay: Antiproliferative activity against human Jurkat cells assessed as 2nd generation cell population at 10 uM after 24 hrs using CFSE staining by flow cytometry relative to control

Structure (SMILES)	Ratio (Jurkat [1])	Activity (Jurkat [2])	Ratio (Jurkat [3])	Activity (Jurkat [4])	Activity (Jurkat [5])	Activity (Jurkat [6])	Ratio (Jurkat [7])	inhibition at 1 µM (Jurkat [8])	Activity (Jurkat [9])
CC[C@@H](CC[C@H]1OC1(C)C)c1cc(O)ccc1O (relative stereo)	3.04	20.3%	7.93	20.47%	18.48%	21.3%	0.62	–	–
Cc1ccc([C@@H](C)CC[C@H]2OC2(C)C)c(O)c1 (relative stereo)	4.77	8.71%	9.67	–	38.84%	–	0.41	–	–
Cc1ccc([C@H](C)CC[C@H]2OC2(C)C)c(O)c1 (relative stereo)	5.2	8.09%	10.46	–	49.3%	–	0.42	–	–
CC[C@H](CC[C@@H]1CO1)c1cc(O)ccc1O (relative stereo)	5.01	8.46%	10.24	–	47.67%	–	0.42	–	–
Cc1cc(O)c([C@@H](C)CC[C@H]2OC2(C)C)cc1O (relative stereo)	1.36	67.44%	6.14	–	–	17.04%	0.92	100%	–
CC[C@H](CC[C@H]1OC1(C)C)c1cc(O)ccc1O (relative stereo)	2.73	21.49%	6.16	13.9%	11.8%	35.78%	0.59	–	–
Cc1ccc([C@H](C)CC[C@@H]2CO2)c(O)c1 (relative stereo)	5.86	6.23%	10.07	–	47.87%	–	0.37	–	–
C[C@@H](CC[C@H]1OC1(C)C)c1cc(O)ccc1O (relative stereo)	6.47	6.02%	10.81	–	64.37%	–	0.39	–	–
CC1(C)OC1CCCc1cc(O)ccc1O (stereo unspecified)	1.11	84.84%	4.76	–	–	–	0.94	–	7.31%
Cc1cc(O)c([C@@H](C)CC[C@@H]2CO2)cc1O (relative stereo)	1.09	89.59%	5.7	–	–	6.73%	0.98	–	–
CC[C@H](CC[C@H]1OC1(C)C)c1ccccc1O (relative stereo)	4.38	10.46%	9.29	–	33.67%	–	0.46	–	–
Cc1cc(O)c([C@H](C)CC[C@H]2OC2(C)C)cc1O (relative stereo)	1.62	53.81%	8.05	13.9%	–	–	0.87	100%	–
CC[C@@H](CC[C@@H]1CO1)c1cc(O)ccc1O (relative stereo)	5.06	7.95%	10.11	–	48.54%	–	0.4	–	–
CC[C@H](CC[C@@H](C)O)c1ccccc1O (relative stereo)	6.11	5.19%	10.18	–	46.79%	–	0.32	–	–
CC[C@@H](CC[C@H]1OC1(C)C)c1ccccc1O (relative stereo)	4.1	11.75%	8.5	–	29.37%	–	0.48	–	–
Cc1cc(O)c([C@H](C)CC[C@@H]2CO2)cc1O (relative stereo)	1.85	46.39%	7.64	–	18.91%	–	0.86	–	–
Cc1ccc([C@@H](C)CC[C@@H]2CO2)c(O)c1 (relative stereo)	5.71	5.27%	9.25	–	40.06%	–	0.3	–	–
